Measured values published in EP0726263A2, “Herbicidal (1,3,4)oxadiazoles and thiadiazoles” (American Cyanamid Company, priority 1995, dated 1996).

Tests used:
Assay type in all cases: in vivo
Ipomoea hederacea [1] = experiment: Herbicidal activity, preemergence test; settings: pre; sprayed onto soil, 800 g of active material per hectare; evaluated 3 weeks after treatment
Outline: (§1)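 First, test compound in acetone containing 0.4% Triton X-155 is diluted with water. Next, it is sprayed at 800 g/ha (900 L/ha) onto freshly seeded loam (pre) or onto seedlings (post). Finally, plants are scored 0-9 visually after 3 or 2 weeks, respectively.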

Triticum aestivum [2] = experiment: Herbicidal activity, preemergence test; settings: pre; sprayed onto soil, 800 g of active material per hectare; evaluated 3 weeks after treatment
Outline: as §1

Lamium purpureum [3] = experiment: Herbicidal activity, preemergence test; settings: pre; sprayed onto soil, 800 g of active material per hectare; evaluated 3 weeks after treatment
Outline: as §1

Gossypium hirsutum [4] = experiment: Herbicidal activity, preemergence test; settings: pre; sprayed onto soil, 800 g of active material per hectare; evaluated 3 weeks after treatment
Outline: as §1

Setaria viridis [5] = experiment: Herbicidal activity, preemergence test; settings: pre; sprayed onto soil, 800 g of active material per hectare; evaluated 3 weeks after treatment
Outline: as §1

Veronica persica [6] = experiment: Herbicidal activity, preemergence test; settings: pre; sprayed onto soil, 800 g of active material per hectare; evaluated 3 weeks after treatment
Outline: as §1

Stellaria media [7] = experiment: Herbicidal activity, preemergence test; settings: pre; sprayed onto soil, 800 g of active material per hectare; evaluated 3 weeks after treatment
Outline: as §1

Hordeum vulgare [8] = experiment: Herbicidal activity, preemergence test; settings: pre; sprayed onto soil, 800 g of active material per hectare; evaluated 3 weeks after treatment
Outline: as §1

Ambrosia artemisifolia [9] = experiment: Herbicidal activity, preemergence test; settings: pre; sprayed onto soil, 800 g of active material per hectare; evaluated 3 weeks after treatment
Outline: as §1

Galium aparine [10] = experiment: Herbicidal activity, preemergence test; settings: pre; sprayed onto soil, 800 g of active material per hectare; evaluated 3 weeks after treatment
Outline: as §1

Papaver rhoeas [11] = experiment: Herbicidal activity, preemergence test; settings: pre; sprayed onto soil, 800 g of active material per hectare; evaluated 3 weeks after treatment
Outline: as §1

Amaranthus retroflexus [12] = experiment: Herbicidal activity, preemergence test; settings: pre; sprayed onto soil, 800 g of active material per hectare; evaluated 3 weeks after treatment
Outline: as §1

Alopecurus myosuroides [13] = experiment: Herbicidal activity, preemergence test; settings: pre; sprayed onto soil, 800 g of active material per hectare; evaluated 3 weeks after treatment
Outline: as §1

Glycine max [14] = experiment: Herbicidal activity, preemergence test; settings: pre; sprayed onto soil, 800 g of active material per hectare; evaluated 3 weeks after treatment
Outline: as §1

Zea mays [15] = experiment: Herbicidal activity, preemergence test; settings: pre; sprayed onto soil, 800 g of active material per hectare; evaluated 3 weeks after treatment
Outline: as §1

Abutilon theophrasti [16] = experiment: Herbicidal activity, preemergence test; settings: pre; sprayed onto soil, 800 g of active material per hectare; evaluated 3 weeks after treatment
Outline: as §1

Chenopodium album [17] = experiment: Herbicidal activity, preemergence test; settings: pre; sprayed onto soil, 800 g of active material per hectare; evaluated 3 weeks after treatment
Outline: as §1

Matricaria inodora [18] = experiment: Herbicidal activity, preemergence test; settings: pre; sprayed onto soil, 800 g of active material per hectare; evaluated 3 weeks after treatment
Outline: as §1

Ipomoea hederacea [19] = experiment: Herbicidal activity, postemergence test; settings: post; sprayed onto seedling plants, 800 g of active material per hectare; evaluated 2 weeks after treatment
Outline: as §1

Triticum aestivum [20] = experiment: Herbicidal activity, postemergence test; settings: post; sprayed onto seedling plants, 800 g of active material per hectare; evaluated 2 weeks after treatment
Outline: as §1

Lamium purpureum [21] = experiment: Herbicidal activity, postemergence test; settings: post; sprayed onto seedling plants, 800 g of active material per hectare; evaluated 2 weeks after treatment
Outline: as §1

Gossypium hirsutum [22] = experiment: Herbicidal activity, postemergence test; settings: post; sprayed onto seedling plants, 800 g of active material per hectare; evaluated 2 weeks after treatment
Outline: as §1

Setaria viridis [23] = experiment: Herbicidal activity, postemergence test; settings: post; sprayed onto seedling plants, 800 g of active material per hectare; evaluated 2 weeks after treatment
Outline: as §1

Veronica persica [24] = experiment: Herbicidal activity, postemergence test; settings: post; sprayed onto seedling plants, 800 g of active material per hectare; evaluated 2 weeks after treatment
Outline: as §1

Stellaria media [25] = experiment: Herbicidal activity, postemergence test; settings: post; sprayed onto seedling plants, 800 g of active material per hectare; evaluated 2 weeks after treatment
Outline: as §1

Hordeum vulgare [26] = experiment: Herbicidal activity, postemergence test; settings: post; sprayed onto seedling plants, 800 g of active material per hectare; evaluated 2 weeks after treatment
Outline: as §1

Ambrosia artemisifolia [27] = experiment: Herbicidal activity, postemergence test; settings: post; sprayed onto seedling plants, 800 g of active material per hectare; evaluated 2 weeks after treatment
Outline: as §1

Galium aparine [28] = experiment: Herbicidal activity, postemergence test; settings: post; sprayed onto seedling plants, 800 g of active material per hectare; evaluated 2 weeks after treatment
Outline: as §1

Papaver rhoeas [29] = experiment: Herbicidal activity, postemergence test; settings: post; sprayed onto seedling plants, 800 g of active material per hectare; evaluated 2 weeks after treatment
Outline: as §1

Amaranthus retroflexus [30] = experiment: Herbicidal activity, postemergence test; settings: post; sprayed onto seedling plants, 800 g of active material per hectare; evaluated 2 weeks after treatment
Outline: as §1

Alopecurus myosuroides [31] = experiment: Herbicidal activity, postemergence test; settings: post; sprayed onto seedling plants, 800 g of active material per hectare; evaluated 2 weeks after treatment
Outline: as §1

Glycine max [32] = experiment: Herbicidal activity, postemergence test; settings: post; sprayed onto seedling plants, 800 g of active material per hectare; evaluated 2 weeks after treatment
Outline: as §1

Zea mays [33] = experiment: Herbicidal activity, postemergence test; settings: post; sprayed onto seedling plants, 800 g of active material per hectare; evaluated 2 weeks after treatment
Outline: as §1

Abutilon theophrasti [34] = experiment: Herbicidal activity, postemergence test; settings: post; sprayed onto seedling plants, 800 g of active material per hectare; evaluated 2 weeks after treatment
Outline: as §1

Chenopodium album [35] = experiment: Herbicidal activity, postemergence test; settings: post; sprayed onto seedling plants, 800 g of active material per hectare; evaluated 2 weeks after treatment
Outline: as §1

Matricaria inodora [36] = experiment: Herbicidal activity, postemergence test; settings: post; sprayed onto seedling plants, 800 g of active material per hectare; evaluated 2 weeks after treatment
Outline: as §1

Which results are given for `C[C@H](NC(=O)c1nnc(-c2ccc(Cl)cc2Cl)o1)c1ccccc1` [Example 26]?
IPOHE control rating (0-9) (Ipomoea hederacea [1]): 0 (no effect); TRZAW control rating (0-9) (Triticum aestivum [2]): 0 (no effect); LAMPU control rating (0-9) (Lamium purpureum [3]): 0 (no effect); GOSHI control rating (0-9) (Gossypium hirsutum [4]): 0 (no effect); SETVI control rating (0-9) (Setaria viridis [5]): 0 (no effect); VERPE control rating (0-9) (Veronica persica [6]): 7 (good herbicidal effect); STEME control rating (0-9) (Stellaria media [7]): 0 (no effect); HORVW control rating (0-9) (Hordeum vulgare [8]): 0 (no effect); AMBEL control rating (0-9) (Ambrosia artemisifolia [9]): 0 (no effect); GALAP control rating (0-9) (Galium aparine [10]): 0 (no effect); PAPRH control rating (0-9) (Papaver rhoeas [11]): 9 (complete kill); AMARE control rating (0-9) (Amaranthus retroflexus [12]): 3 (moderate effect); ALOMY control rating (0-9) (Alopecurus myosuroides [13]): 0 (no effect); GLXMA control rating (0-9) (Glycine max [14]): 0 (no effect); ZEAMX control rating (0-9) (Zea mays [15]): 0 (no effect); ABUTH control rating (0-9) (Abutilon theophrasti [16]): 0 (no effect); CHEAL control rating (0-9) (Chenopodium album [17]): 0 (no effect); MATIN control rating (0-9) (Matricaria inodora [18]): 0 (no effect); IPOHE control rating (0-9) (Ipomoea hederacea [19]): 0 (no effect); TRZAW control rating (0-9) (Triticum aestivum [20]): 0 (no effect); LAMPU control rating (0-9) (Lamium purpureum [21]): 7 (good herbicidal effect); GOSHI control rating (0-9) (Gossypium hirsutum [22]): 3 (moderate effect); SETVI control rating (0-9) (Setaria viridis [23]): 4 (injury); VERPE control rating (0-9) (Veronica persica [24]): 3 (moderate effect); STEME control rating (0-9) (Stellaria media [25]): 6 (herbicidal effect); HORVW control rating (0-9) (Hordeum vulgare [26]): 0 (no effect); AMBEL control rating (0-9) (Ambrosia artemisifolia [27]): 0 (no effect); GALAP control rating (0-9) (Galium aparine [28]): 0 (no effect); PAPRH control rating (0-9) (Papaver rhoeas [29]): 3 (moderate effect); AMARE control rating (0-9) (Amaranthus retroflexus [30]): 8 (approaching complete kill); ALOMY control rating (0-9) (Alopecurus myosuroides [31]): 0 (no effect); GLXMA control rating (0-9) (Glycine max [32]): 2 (slight effect); ZEAMX control rating (0-9) (Zea mays [33]): 0 (no effect); ABUTH control rating (0-9) (Abutilon theophrasti [34]): 1 (trace effect); CHEAL control rating (0-9) (Chenopodium album [35]): 5 (definite injury); MATIN control rating (0-9) (Matricaria inodora [36]): 2 (slight effect)

For `C[C@H](NC(=O)c1nnc(-c2ccc(Cl)c(Cl)c2)o1)c1ccccc1` [Example 27], which “IPOHE control rating (0-9)” value (Ipomoea hederacea [1]) is on record?
The value was 0 (no effect).

What about the “TRZAW control rating (0-9)” value (Triticum aestivum [2]) of the same compound?
Its value is 0 (no effect).

What about the “LAMPU control rating (0-9)” value (Lamium purpureum [3]) of the same compound?
Its value is 0 (no effect).

What about the “GOSHI control rating (0-9)” value (Gossypium hirsutum [4]) of the same compound?
Its value is 0 (no effect).

And the “SETVI control rating (0-9)” value (Setaria viridis [5])?
The value was 0 (no effect).

What about the “VERPE control rating (0-9)” value (Veronica persica [6]) of the same compound?
Its value is 3 (moderate effect).

And the “STEME control rating (0-9)” value (Stellaria media [7])?
Its value is 0 (no effect).

And the “HORVW control rating (0-9)” value (Hordeum vulgare [8])?
The value was 0 (no effect).

What about the “AMBEL control rating (0-9)” value (Ambrosia artemisifolia [9]) of the same compound?
The value was 0 (no effect).

What about the “GALAP control rating (0-9)” value (Galium aparine [10]) of the same compound?
The value was 0 (no effect).

What about the “PAPRH control rating (0-9)” value (Papaver rhoeas [11]) of the same compound?
Its value is 3 (moderate effect).

What about the “AMARE control rating (0-9)” value (Amaranthus retroflexus [12]) of the same compound?
The value was 0 (no effect).

And the “ALOMY control rating (0-9)” value (Alopecurus myosuroides [13])?
The value was 0 (no effect).

What about the “GLXMA control rating (0-9)” value (Glycine max [14]) of the same compound?
Its value is 0 (no effect).

And the “ZEAMX control rating (0-9)” value (Zea mays [15])?
Its value is 0 (no effect).

And the “ABUTH control rating (0-9)” value (Abutilon theophrasti [16])?
The value was 0 (no effect).

What about the “CHEAL control rating (0-9)” value (Chenopodium album [17]) of the same compound?
Its value is 0 (no effect).

What about the “MATIN control rating (0-9)” value (Matricaria inodora [18]) of the same compound?
Its value is 0 (no effect).

And the “IPOHE control rating (0-9)” value (Ipomoea hederacea [19])?
The value was 0 (no effect).

And the “TRZAW control rating (0-9)” value (Triticum aestivum [20])?
Its value is 0 (no effect).

What about the “LAMPU control rating (0-9)” value (Lamium purpureum [21]) of the same compound?
Its value is 4 (injury).

What about the “GOSHI control rating (0-9)” value (Gossypium hirsutum [22]) of the same compound?
The value was 2 (slight effect).

What about the “SETVI control rating (0-9)” value (Setaria viridis [23]) of the same compound?
The value was 0 (no effect).

What about the “VERPE control rating (0-9)” value (Veronica persica [24]) of the same compound?
The value was 0 (no effect).

What about the “STEME control rating (0-9)” value (Stellaria media [25]) of the same compound?
Its value is 0 (no effect).

And the “HORVW control rating (0-9)” value (Hordeum vulgare [26])?
The value was 0 (no effect).

And the “AMBEL control rating (0-9)” value (Ambrosia artemisifolia [27])?
The value was 0 (no effect).

And the “GALAP control rating (0-9)” value (Galium aparine [28])?
Its value is 0 (no effect).

What about the “PAPRH control rating (0-9)” value (Papaver rhoeas [29]) of the same compound?
The value was 2 (slight effect).

And the “AMARE control rating (0-9)” value (Amaranthus retroflexus [30])?
Its value is 5 (definite injury).

And the “ALOMY control rating (0-9)” value (Alopecurus myosuroides [31])?
The value was 0 (no effect).

And the “GLXMA control rating (0-9)” value (Glycine max [32])?
Its value is 2 (slight effect).

What about the “ZEAMX control rating (0-9)” value (Zea mays [33]) of the same compound?
The value was 0 (no effect).

And the “ABUTH control rating (0-9)” value (Abutilon theophrasti [34])?
Its value is 0 (no effect).

And the “CHEAL control rating (0-9)” value (Chenopodium album [35])?
Its value is 6 (herbicidal effect).

And the “MATIN control rating (0-9)” value (Matricaria inodora [36])?
Its value is 0 (no effect).
